Data as given in ChEMBL document CHEMBL5723584 (2023).
The source made the active and inactive calls. The calls are words filed in the database; no cut-off is given here.

Columns and labels:
[1] = biological target: Serine/threonine-protein kinase PLK3 (Homo sapiens) (UniProt Q9H4B4); assay: activity of Plk3(h) at 1.0 µM in the Eurofins Kinase panel; details: Compound concentration 1.0 uM
[2] = biological target: Calcium/calmodulin-dependent protein kinase type II subunit gamma (Homo sapiens) (UniProt Q13555); assay: activity of CaMKIIgamma(h) at 1.0 µM in the Eurofins Kinase panel; details: Compound concentration 1.0 uM
[3] = biological target: Serine/threonine-protein kinase tousled-like 2 (Homo sapiens) (UniProt Q86UE8); assay: activity of TLK2(h) at 1.0 µM in the Eurofins Kinase panel; details: Compound concentration 1.0 uM
[4] = biological target: Calcium/calmodulin-dependent protein kinase kinase 2 (Homo sapiens) (UniProt Q96RR4); assay: activity of CaMKK2(h) at 1.0 µM in the Eurofins Kinase panel; details: Compound concentration 1.0 uM
[5] = biological target: G protein-coupled receptor kinase 3 (Homo sapiens) (UniProt P35626); assay: activity of GRK3(h) at 1.0 µM in the Eurofins Kinase panel; details: Compound concentration 1.0 uM
[6] = biological target: RAC-alpha serine/threonine-protein kinase (Homo sapiens) (UniProt P31749); assay: activity of PKBalpha(h) at 1.0 µM in the Eurofins Kinase panel; details: Compound concentration 1.0 uM
Aurora kinase A = Aurora kinase A (Homo sapiens, UniProt O14965); assay: Promega NanoBRET (AURKA)
[7] = biological target: Protein kinase C beta type (Homo sapiens) (UniProt P05771); assay: activity of PKCbetaII(h) at 1.0 µM in the Eurofins Kinase panel; details: Compound concentration 1.0 uM
[8] = biological target: Serine/threonine-protein kinase 10 (Homo sapiens) (UniProt O94804); assay: activity of LOK(h) at 1.0 µM in the Eurofins Kinase panel; details: Compound concentration 1.0 uM
[9] = biological target: SNF-related serine/threonine-protein kinase (Homo sapiens) (UniProt Q9NRH2); assay: activity of SNRK(h) at 1.0 µM in the Eurofins Kinase panel; details: Compound concentration 1.0 uM
[10] = biological target: Homeodomain-interacting protein kinase 2 (Homo sapiens) (UniProt Q9H2X6); assay: activity of HIPK2(h) at 1.0 µM in the Eurofins Kinase panel; details: Compound concentration 1.0 uM
[11] = biological target: Activin receptor type-1B (Homo sapiens) (UniProt P36896); assay: activity of ALK4(h) at 1.0 µM in the Eurofins Kinase panel; details: Compound concentration 1.0 uM
[12] = biological target: Rho-associated protein kinase 2 (Homo sapiens) (UniProt O75116); assay: activity of ROCK-II(h) at 1.0 µM in the Eurofins Kinase panel; details: Compound concentration 1.0 uM
[13] = biological target: Serine/threonine-protein kinase PAK 5 (Homo sapiens) (UniProt Q9P286); assay: activity of PAK5(h) at 1.0 µM in the Eurofins Kinase panel; details: Compound concentration 1.0 uM
[14] = biological target: Serine/threonine-protein kinase LATS2 (Homo sapiens) (UniProt Q9NRM7); assay: activity of LATS2(h) at 1.0 µM in the Eurofins Kinase panel; details: Compound concentration 1.0 uM
[15] = biological target: Eukaryotic translation initiation factor 2-alpha kinase 1 (Homo sapiens) (UniProt Q9BQI3); assay: activity of HRI(h) at 1.0 µM in the Eurofins Kinase panel; details: Compound concentration 1.0 uM
[16] = biological target: NUAK family SNF1-like kinase 2 (Homo sapiens) (UniProt Q9H093); assay: activity of NUAK2(h) at 1.0 µM in the Eurofins Kinase panel; details: Compound concentration 1.0 uM
[17] = biological target: Ribosomal protein S6 kinase alpha-4 (Homo sapiens) (UniProt O75676); assay: activity of MSK2(h) at 1.0 µM in the Eurofins Kinase panel; details: Compound concentration 1.0 uM
[18] = biological target: Cyclin-Y/Cyclin-dependent kinase 16 (Homo sapiens) (UniProt Q00536+Q8ND76); assay: activity of CDK16/cyclinY(h) at 1.0 µM in the Eurofins Kinase panel; assay type: protein-complex assay; details: Compound concentration 1.0 uM
[19] = biological target: Serine/threonine-protein kinase LATS1 (Homo sapiens) (UniProt O95835); assay: activity of LATS1(h) at 1.0 µM in the Eurofins Kinase panel; details: Compound concentration 1.0 uM
[20] = biological target: Serine/threonine-protein kinase 4 (Homo sapiens) (UniProt Q13043); assay: activity of MST1(h) at 1.0 µM in the Eurofins Kinase panel; details: Compound concentration 1.0 uM
[21] = biological target: Serine/threonine-protein kinase 38 (Homo sapiens) (UniProt Q15208); assay: activity of NDR1(h) at 1.0 µM in the Eurofins Kinase panel; details: Compound concentration 1.0 uM
[22] = biological target: Serine/threonine-protein kinase WNK2 (Homo sapiens) (UniProt Q9Y3S1); assay: activity of WNK2(h) at 1.0 µM in the Eurofins Kinase panel; details: Compound concentration 1.0 uM
[23] = biological target: MAP kinase-activated protein kinase 3 (Homo sapiens) (UniProt Q16644); assay: activity of MAPKAP-K3(h) at 1.0 µM in the Eurofins Kinase panel; details: Compound concentration 1.0 uM
[24] = biological target: Non-receptor tyrosine-protein kinase TYK2 (Homo sapiens) (UniProt P29597); assay: activity of TYK2(h) at 1.0 µM in the Eurofins Kinase panel; details: Compound concentration 1.0 uM
[25] = biological target: Casein kinase I isoform alpha (Homo sapiens) (UniProt P48729); assay: activity of CK1alpha(h) at 1.0 µM in the Eurofins Kinase panel; details: Compound concentration 1.0 uM
[26] = biological target: Inhibitor of nuclear factor kappa-B kinase subunit beta (Homo sapiens) (UniProt O14920); assay: activity of IKKbeta(h) at 1.0 µM in the Eurofins Kinase panel; details: Compound concentration 1.0 uM
[27] = biological target: Serine/threonine-protein kinase DCLK1 (Homo sapiens) (UniProt O15075); assay: activity of DCAMKL1(h) at 1.0 µM in the Eurofins Kinase panel; details: Compound concentration 1.0 uM
[28] = biological target: Protein kinase C alpha type (Homo sapiens) (UniProt P17252); assay: activity of PKCalpha(h) at 1.0 µM in the Eurofins Kinase panel; details: Compound concentration 1.0 uM
Aurora kinase B = Aurora kinase B (Homo sapiens, UniProt Q96GD4); assay: activity of Aurora-B(h) at 1.0 µM in the Eurofins Kinase panel; details: Compound concentration 1.0 uM
[29] = biological target: Serine/threonine-protein kinase D2 (Homo sapiens) (UniProt Q9BZL6); assay: activity of PKD2(h) at 1.0 µM in the Eurofins Kinase panel; details: Compound concentration 1.0 uM
[30] = biological target: Aurora kinase C (Homo sapiens) (UniProt Q9UQB9); assay: activity of Aurora-C(h) at 1.0 µM in the Eurofins Kinase panel; details: Compound concentration 1.0 uM
[31] = biological target: Citron Rho-interacting kinase (Homo sapiens, UniProt O14578); assay: NanoLuc NanoBRET (CIT); details: read-out: Kd
[32] = biological target: Ribosomal protein S6 kinase alpha-3 (Homo sapiens) (UniProt P51812); assay: activity of Rsk2(h) at 1.0 µM in the Eurofins Kinase panel; details: Compound concentration 1.0 uM
[33] = biological target: cAMP-dependent protein kinase catalytic subunit PRKX (Homo sapiens) (UniProt P51817); assay: activity of PrKX(h) at 1.0 µM in the Eurofins Kinase panel; details: Compound concentration 1.0 uM
[34] = biological target: Tyrosine-protein kinase receptor UFO (Homo sapiens) (UniProt P30530); assay: activity of Axl(h) at 1.0 µM in the Eurofins Kinase panel; details: Compound concentration 1.0 uM
[35] = biological target: Serine/threonine-protein kinase MARK1 (Homo sapiens) (UniProt Q9P0L2); assay: activity of MARK1(h) at 1.0 µM in the Eurofins Kinase panel; details: Compound concentration 1.0 uM
[36] = biological target: Inhibitor of nuclear factor kappa-B kinase subunit alpha (Homo sapiens) (UniProt O15111); assay: activity of IKKalpha(h) at 1.0 µM in the Eurofins Kinase panel; details: Compound concentration 1.0 uM
[37] = biological target: Serine/threonine-protein kinase tousled-like 1 (Homo sapiens) (UniProt Q9UKI8); assay: activity of TLK1(h) at 1.0 µM in the Eurofins Kinase panel; details: Compound concentration 1.0 uM

Chain of Ribosomal protein S6 kinase alpha-4 (Homo sapiens) (O75676 whole entry, looked up): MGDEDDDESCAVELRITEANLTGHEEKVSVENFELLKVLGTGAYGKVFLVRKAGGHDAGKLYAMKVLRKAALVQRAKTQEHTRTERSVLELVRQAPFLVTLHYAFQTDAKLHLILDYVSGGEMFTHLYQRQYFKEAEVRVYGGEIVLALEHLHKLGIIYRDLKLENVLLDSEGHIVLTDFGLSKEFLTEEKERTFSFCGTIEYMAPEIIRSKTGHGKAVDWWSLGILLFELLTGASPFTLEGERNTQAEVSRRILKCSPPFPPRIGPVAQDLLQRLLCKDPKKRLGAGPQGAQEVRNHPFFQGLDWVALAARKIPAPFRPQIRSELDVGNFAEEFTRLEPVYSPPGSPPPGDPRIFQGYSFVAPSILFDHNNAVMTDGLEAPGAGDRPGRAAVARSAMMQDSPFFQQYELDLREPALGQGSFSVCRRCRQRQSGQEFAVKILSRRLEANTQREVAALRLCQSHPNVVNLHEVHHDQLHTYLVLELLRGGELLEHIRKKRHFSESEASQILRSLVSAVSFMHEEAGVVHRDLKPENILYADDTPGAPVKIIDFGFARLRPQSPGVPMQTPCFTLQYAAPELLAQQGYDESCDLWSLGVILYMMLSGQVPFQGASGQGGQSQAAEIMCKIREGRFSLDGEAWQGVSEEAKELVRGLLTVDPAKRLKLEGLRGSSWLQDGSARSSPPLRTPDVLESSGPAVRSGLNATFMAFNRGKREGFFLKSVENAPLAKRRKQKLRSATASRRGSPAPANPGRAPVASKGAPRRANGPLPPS
Chain of Tyrosine-protein kinase receptor UFO (Homo sapiens) (P30530 whole entry): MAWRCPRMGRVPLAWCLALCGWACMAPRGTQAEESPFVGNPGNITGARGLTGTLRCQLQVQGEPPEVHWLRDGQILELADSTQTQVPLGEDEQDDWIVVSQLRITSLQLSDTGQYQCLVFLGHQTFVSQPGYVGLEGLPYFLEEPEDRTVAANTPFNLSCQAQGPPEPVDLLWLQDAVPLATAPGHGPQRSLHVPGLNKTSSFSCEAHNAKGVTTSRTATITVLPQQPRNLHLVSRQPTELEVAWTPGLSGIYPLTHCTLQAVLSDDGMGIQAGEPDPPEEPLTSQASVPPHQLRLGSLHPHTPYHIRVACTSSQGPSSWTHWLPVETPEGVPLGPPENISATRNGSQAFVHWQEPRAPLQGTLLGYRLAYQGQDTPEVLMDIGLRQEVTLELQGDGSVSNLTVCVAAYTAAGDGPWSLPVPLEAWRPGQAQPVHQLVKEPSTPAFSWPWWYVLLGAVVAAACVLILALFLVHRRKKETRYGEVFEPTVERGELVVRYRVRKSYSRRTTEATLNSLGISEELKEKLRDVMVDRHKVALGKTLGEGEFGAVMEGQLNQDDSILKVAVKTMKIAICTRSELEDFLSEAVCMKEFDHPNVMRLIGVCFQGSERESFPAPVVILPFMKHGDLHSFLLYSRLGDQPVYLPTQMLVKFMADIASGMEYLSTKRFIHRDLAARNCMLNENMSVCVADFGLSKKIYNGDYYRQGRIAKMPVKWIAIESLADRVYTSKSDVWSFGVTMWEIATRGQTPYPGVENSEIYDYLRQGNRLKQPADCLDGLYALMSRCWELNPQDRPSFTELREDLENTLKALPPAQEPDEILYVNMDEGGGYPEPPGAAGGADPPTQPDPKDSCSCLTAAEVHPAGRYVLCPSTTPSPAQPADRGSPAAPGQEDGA
Chain of Ribosomal protein S6 kinase alpha-3 (Homo sapiens) (P51812 whole entry): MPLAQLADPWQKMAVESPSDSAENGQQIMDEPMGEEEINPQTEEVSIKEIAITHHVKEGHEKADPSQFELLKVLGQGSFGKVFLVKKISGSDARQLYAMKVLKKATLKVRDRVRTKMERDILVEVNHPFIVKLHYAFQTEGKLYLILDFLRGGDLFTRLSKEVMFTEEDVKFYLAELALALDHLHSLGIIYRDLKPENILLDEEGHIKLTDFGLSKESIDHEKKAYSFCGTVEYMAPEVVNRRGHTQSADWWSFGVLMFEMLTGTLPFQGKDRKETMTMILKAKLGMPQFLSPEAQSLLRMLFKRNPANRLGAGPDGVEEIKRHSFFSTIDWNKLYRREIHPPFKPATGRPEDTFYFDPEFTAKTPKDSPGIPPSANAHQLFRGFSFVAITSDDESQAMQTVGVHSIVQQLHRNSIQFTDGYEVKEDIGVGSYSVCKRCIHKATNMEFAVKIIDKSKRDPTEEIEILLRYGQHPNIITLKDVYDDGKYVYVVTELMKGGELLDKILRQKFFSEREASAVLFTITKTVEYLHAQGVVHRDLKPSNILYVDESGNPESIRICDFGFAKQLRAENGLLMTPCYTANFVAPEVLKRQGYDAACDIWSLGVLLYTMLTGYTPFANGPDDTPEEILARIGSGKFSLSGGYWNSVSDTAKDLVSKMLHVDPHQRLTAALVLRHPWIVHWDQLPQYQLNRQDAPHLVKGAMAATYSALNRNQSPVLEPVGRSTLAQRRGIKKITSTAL
Chain of Serine/threonine-protein kinase LATS2 (Homo sapiens) (Q9NRM7 whole entry): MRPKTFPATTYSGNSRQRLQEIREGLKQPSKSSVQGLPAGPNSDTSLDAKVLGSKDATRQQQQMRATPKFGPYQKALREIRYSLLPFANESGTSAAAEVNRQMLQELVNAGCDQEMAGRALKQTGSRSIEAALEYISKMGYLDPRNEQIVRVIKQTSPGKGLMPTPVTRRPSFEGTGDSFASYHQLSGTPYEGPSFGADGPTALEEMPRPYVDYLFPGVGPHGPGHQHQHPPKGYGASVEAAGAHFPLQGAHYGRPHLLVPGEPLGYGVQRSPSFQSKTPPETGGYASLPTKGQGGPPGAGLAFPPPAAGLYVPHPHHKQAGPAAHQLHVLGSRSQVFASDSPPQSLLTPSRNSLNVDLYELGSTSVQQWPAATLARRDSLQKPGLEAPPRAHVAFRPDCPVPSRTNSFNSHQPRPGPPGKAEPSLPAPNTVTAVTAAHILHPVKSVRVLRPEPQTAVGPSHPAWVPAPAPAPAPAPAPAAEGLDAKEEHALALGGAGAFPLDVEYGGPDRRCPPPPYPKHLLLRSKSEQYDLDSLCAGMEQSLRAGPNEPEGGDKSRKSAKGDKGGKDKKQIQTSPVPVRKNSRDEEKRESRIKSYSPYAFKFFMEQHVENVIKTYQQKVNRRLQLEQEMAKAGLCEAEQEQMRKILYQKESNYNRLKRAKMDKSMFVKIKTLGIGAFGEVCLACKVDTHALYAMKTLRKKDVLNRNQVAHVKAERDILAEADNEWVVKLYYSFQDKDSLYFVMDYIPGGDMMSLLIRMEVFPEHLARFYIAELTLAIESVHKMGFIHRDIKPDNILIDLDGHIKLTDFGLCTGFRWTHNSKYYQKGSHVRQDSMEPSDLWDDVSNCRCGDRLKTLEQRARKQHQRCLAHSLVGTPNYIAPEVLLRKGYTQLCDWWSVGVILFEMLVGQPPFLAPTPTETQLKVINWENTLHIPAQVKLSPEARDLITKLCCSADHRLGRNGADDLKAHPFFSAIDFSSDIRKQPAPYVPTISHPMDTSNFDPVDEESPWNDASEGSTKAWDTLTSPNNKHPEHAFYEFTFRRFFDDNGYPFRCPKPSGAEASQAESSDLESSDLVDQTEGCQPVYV
Chain of Activin receptor type-1B (Homo sapiens) (P36896 whole entry): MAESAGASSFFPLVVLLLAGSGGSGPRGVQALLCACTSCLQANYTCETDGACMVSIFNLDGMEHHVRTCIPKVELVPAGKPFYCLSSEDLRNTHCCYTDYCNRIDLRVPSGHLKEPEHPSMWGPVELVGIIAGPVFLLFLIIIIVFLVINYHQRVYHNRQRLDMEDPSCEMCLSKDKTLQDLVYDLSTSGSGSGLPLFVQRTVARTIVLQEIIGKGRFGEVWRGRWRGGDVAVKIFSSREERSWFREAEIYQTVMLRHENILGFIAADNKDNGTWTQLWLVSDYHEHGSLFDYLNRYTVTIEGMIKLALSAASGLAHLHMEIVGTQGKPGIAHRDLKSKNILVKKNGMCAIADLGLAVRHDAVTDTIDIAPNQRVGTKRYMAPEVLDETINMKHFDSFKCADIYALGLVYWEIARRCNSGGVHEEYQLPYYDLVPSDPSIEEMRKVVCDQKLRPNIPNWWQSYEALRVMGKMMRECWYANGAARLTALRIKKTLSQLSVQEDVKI
Chain of Serine/threonine-protein kinase D2 (Homo sapiens) (Q9BZL6 whole entry): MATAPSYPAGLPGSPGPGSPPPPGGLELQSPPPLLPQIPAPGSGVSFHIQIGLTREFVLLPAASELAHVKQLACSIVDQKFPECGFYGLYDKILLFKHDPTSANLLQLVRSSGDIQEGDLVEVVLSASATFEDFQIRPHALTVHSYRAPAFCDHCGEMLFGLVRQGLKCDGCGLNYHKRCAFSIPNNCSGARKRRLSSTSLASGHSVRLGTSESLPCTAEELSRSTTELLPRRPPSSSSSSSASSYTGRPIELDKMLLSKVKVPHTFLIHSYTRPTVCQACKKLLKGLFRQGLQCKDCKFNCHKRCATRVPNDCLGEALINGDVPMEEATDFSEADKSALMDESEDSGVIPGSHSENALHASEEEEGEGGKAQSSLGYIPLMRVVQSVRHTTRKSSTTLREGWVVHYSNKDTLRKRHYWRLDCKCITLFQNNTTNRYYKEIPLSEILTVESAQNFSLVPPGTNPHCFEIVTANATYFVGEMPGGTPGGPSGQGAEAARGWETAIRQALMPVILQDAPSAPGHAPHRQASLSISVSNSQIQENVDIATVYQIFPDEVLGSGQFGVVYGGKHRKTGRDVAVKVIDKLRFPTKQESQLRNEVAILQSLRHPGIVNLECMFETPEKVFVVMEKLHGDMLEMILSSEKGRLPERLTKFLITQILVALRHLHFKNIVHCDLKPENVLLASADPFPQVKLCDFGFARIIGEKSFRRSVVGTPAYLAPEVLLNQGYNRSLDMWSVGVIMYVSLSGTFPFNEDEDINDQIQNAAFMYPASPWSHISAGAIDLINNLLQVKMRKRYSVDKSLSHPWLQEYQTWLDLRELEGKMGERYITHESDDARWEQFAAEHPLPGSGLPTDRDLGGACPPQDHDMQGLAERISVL

Question: How did the activity [1] turn out when `Cc1cc2c(-c3ccc(NC(=O)[C@H](N)CC(C)(C)C)cc3C)ccnc2[nH]1` was run?
Answer: Its activity is 100%.

Question: What about the activity [2] of the same molecule?
Answer: Its activity is 106%.

Question: And the activity [3]?
Answer: Its activity is 92%.

Question: And the activity [4]?
Answer: The activity was 96%.

Question: And the activity [5]?
Answer: The activity was 81%.

Question: What about the activity [6] of the same molecule?
Answer: Its activity is 87%.

Question: What about the IC50 (Aurora kinase A) of the same molecule?
Answer: Its IC50 is > 10 µM (not active).

Question: What about the activity [7] of the same molecule?
Answer: The activity was 87%.

Question: And the activity [8]?
Answer: The activity was 96%.

Question: And the activity [9]?
Answer: Its activity is 111%.

Question: And the activity [10]?
Answer: Its activity is 105%.

Question: And the activity [11]?
Answer: Its activity is 94%.

Question: What about the activity [12] of the same molecule?
Answer: The activity was 96%.

Question: And the activity [13]?
Answer: Its activity is 87%.

Question: What about the activity [14] of the same molecule?
Answer: Its activity is 102%.

Question: What about the activity [15] of the same molecule?
Answer: The activity was 80%.

Question: And the activity [16]?
Answer: Its activity is 72%.

Question: And the activity [17]?
Answer: The activity was 88%.

Question: And the activity [18]?
Answer: Its activity is 98%.

Question: What about the activity [19] of the same molecule?
Answer: Its activity is 90%.

Question: What about the activity [20] of the same molecule?
Answer: The activity was 76%.

Question: What about the activity [21] of the same molecule?
Answer: Its activity is 100%.

Question: What about the activity [22] of the same molecule?
Answer: The activity was 94%.

Question: What about the activity [23] of the same molecule?
Answer: Its activity is 125%.

Question: And the activity [24]?
Answer: The activity was 103%.

Question: What about the activity [25] of the same molecule?
Answer: The activity was 97%.

Question: And the activity [26]?
Answer: The activity was 99%.

Question: And the activity [27]?
Answer: The activity was 95%.

Question: And the activity [28]?
Answer: The activity was 92%.

Question: And the activity (Aurora kinase B)?
Answer: The activity was 109%.

Question: And the activity [29]?
Answer: The activity was 95%.

Question: And the activity [30]?
Answer: The activity was 94%.

Question: What about the Kd [31] of the same molecule?
Answer: Its Kd is 0.0095 µM (active).

Question: And the activity [32]?
Answer: The activity was 88%.

Question: And the activity [33]?
Answer: The activity was 101%.

Question: What about the activity [34] of the same molecule?
Answer: Its activity is 91%.

Question: What about the activity [35] of the same molecule?
Answer: The activity was 106%.

Question: What about the activity [36] of the same molecule?
Answer: The activity was 98%.

Question: And the activity [37]?
Answer: Its activity is 82%.
